Patent publication US11911436B2, “Amphiphilic peptide chaperones and methods of use” (priority 2021, dated 2024)
Where two headings read alike, the source gives them in different places. Marks after values point to notes of the source that are not given here. Square brackets hold non-standard residues; d marks the D form. Peptide text beside a SMILES is read from it. * marks the point of attachment. Myristoyl = CCCCCCCCCCCCCC(=O)*; dNMeL = CN[C@H](CC(C)C)C(=O)O; TMR = tetramethylrhodamine

Tests used:
[1] = biological target: Proteinase K (Parengyodontium album, UniProt P06873); assay: Proteinase K incubation, HPLC profiles; type: in vitro ADME; details: 100 μg peptide, 10 μg Proteinase K, overnight
Chain of Proteinase K (P06873 106-384, species assumed): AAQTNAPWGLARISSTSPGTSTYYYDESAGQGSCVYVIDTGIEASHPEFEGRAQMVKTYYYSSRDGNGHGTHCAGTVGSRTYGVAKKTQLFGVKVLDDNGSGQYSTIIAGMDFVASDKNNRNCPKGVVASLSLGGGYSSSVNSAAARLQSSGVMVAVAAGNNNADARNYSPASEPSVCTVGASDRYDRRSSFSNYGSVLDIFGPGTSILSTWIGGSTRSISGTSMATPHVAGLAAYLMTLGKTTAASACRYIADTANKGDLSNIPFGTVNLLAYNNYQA

[2] = system: ARPE-19 cells, hiPSC-NSC cultures, and NSC-derived neurons; assay: Peptide entry into cells (fluorescent label); details: fluorescently labeled peptide
[3] = system: human red blood cells; assay: Melittin-induced hemolysis of human RBC; type: cell-based; details: 2% human RBC, room temperature 30 min, OD 540 nm
Experimental: Hemolysis of human red blood cells with melittin was measured with varying concentrations of CPAMC (FIG. 3). To 0.3 mL of 2% human RBC (red blood cell) suspension was added 2 μM melittin and/or peptides taken in 0.7 mL of PBS. The tubes were incubated at room temperature for 30 min, centrifuged, and the OD of the supernatant was measured at 540 nm. PBS and PBS containing 0.1% TritonX-100 served as negative and positive control, respectively.
The protective effect of Myr-CPAMC peptide of human red blood cells (RBC) from melittin-induced hemolysis was also examined. To 0.3 mL of 2% human RBC suspension was added to melittin and/or peptide taken in 0.7 mL of PBS. The tubes were incubated at room temperature for 30 min, centrifuged (FIG. 5A) and the OD of the supernatant was measured at 540 nm. PBS and PBS containing 0.1% TritonX-100 served as negative and positive control, respectively.

[4] = system: ARPE-19 cells; assay: Peptide toxicity to cells, cell viability imaging; type: cell-based; details: increasing peptide concentrations
Experimental: Cell viability imaging was performed on cells with increasing concentrations of Myr-CPAMC, with fluorescent staining used to indicate dead cells (FIG. 9A).

[5] = system: ARPE-19 cells; assay: Sodium iodate cytotoxicity, cell viability imaging; type: cell-based; details: 7.5 mM sodium iodate, 24 hours
Experimental: Sodium iodate is a chemical that induces oxidative stress and cell death. The ability of CPPRAMC peptide to block the cytotoxic action of sodium iodate was investigated. ARPE-19 cells cultured on a 96-well plate were treated with 7.5 mM sodium iodate and/or CPPRAMC peptide for 24 hours. At the end of the incubation, cell viability imaging was done using the EarlyTox cell integrity kit (Molecular Devices, Sunnyvale, Calif.) (FIG. 6A). The percentage of dead cells in each sample was calculated from the live/dead cell imaging data using the Softmax Pro software (FIG. 6B).
The ability of Myr-CPAMC peptide to block the cytotoxic action of sodium iodate was also investigated. Authenticated ARPE-19 cells cultured on a 96-well plate were treated with 7.5 mM sodium iodate and/or Myr-CPAMC peptide for 24 hours. At the end of the incubation, cell viability imaging was done using the EarlyTox cell integrity kit (Molecular Devices, Sunnyvale, Calif.) (FIG. 7A). The percentage of dead cells in each sample was calculated from the live/dead cell imaging data using the Softmax Pro software (FIG. 7B).

[6] = system: wild-type C. elegans (N2); assay: C. elegans N2 lifespan assay at 20° C. with peptide feeding; type: in vivo; details: N2 worms; for Median Lifespan (Days ± SE): 50 μg peptide with E. coli OP50; for Increase in median survival (%): 50 μg peptide, vs control
Experimental: A schematic of an assay of C. elegans N2 lifespan at 20° C. is shown (FIG. 10A). This involved peptide treatment (50 μg) with E. coli OP50 as a food source. Plates were changed every second day with 50 μg fresh peptide and OP50. Scoring of survival was done every day to the last day of survival. 50 mM FUdR was added in experimental plates between D1 and D5 to prevent progeny production.

[7] = system: CL2006 C. elegans; assay: CL2006 lifespan at 20° C. (paralysis and death model); type: in vivo; details: CL2006 worms, 50 μg peptide
Experimental: CL2006 C. elegans were used as a paralysis and death model. Worms are maintained at 15° C., with adult onset paralysis induced at 20° C.
50 μg CPAMC and CPPRAMC peptide or controls were added to CL2006 worms, and the fraction left alive over time at the restrictive temperature of 20° C. was quantified (FIG. 12). […] (FIG. 12).

[8] = system: CL4176 C. elegans; assay: CL4176 Aβ-induced paralysis and survival assay; type: in vivo; details: CL4176 worms
Experimental: CL4176 C. elegans is a temperature sensitive strain. Worms are maintained at 15° C. and shifted to increased temperature to cause Aβ-induced paralysis in adults. This has been used as a C. elegans model of Alzheimer's disease.
A scheme of a paralysis assay with CL4176 worms is shown (FIG. 13A). Peptide treatment began on CL4176 embryos and continued throughout the experiment. After 2 days at 15° C., the temperature was increased to the restrictive temperature of 25° C. Worms were scored for survival and paralysis.
Example images of paralyzed and non-paralyzed worms are shown (FIG. 13C).

[9] = system: C. elegans (N2) worms; assay: Juglone (JG)-induced oxidative stress survival; type: in vivo; details: N2 worms at day 5, 50 μg peptide 24 h, 50 μM JG
Experimental: N2 worms at day 5 pretreated for 24 h with 50 μg CPAMC or CP-SC (control) and subjected to 50 μM JG. Survival was checked every hour under a microscope until the end of survival. The median survival value in CPAMC and CP-SC (control) peptides corresponds to 7.3 h and 5.9 h, respectively, compared to vehicle control (4.9 h) (FIG. 15).

[10] = system: C. elegans wild-type (N2 strain); assay: Paraquat (PQ)-induced oxidative stress survival; type: in vivo; details: five-day old N2 worms, 50 μg peptide 24 hours, 50 mM PQ
Experimental: Five-day old N2 worms were pretreated with 50 μg peptide for 24 hours and subjected to 50 mM PQ. The survival of the worms was monitored every hour under a microscope until the end of survival. […] The median survival value (50% survival) in CPPRAMC, CPAMC, and CP-SC (control) peptides corresponds to 9.6 h, 8.9 h and 5.9 h, respectively, as compared to vehicle control (5.5 h) (FIG. 14).

[11] = system: C. elegans (N2 strain); assay: Thermotolerance assay, continuous heat stress at 35° C.; type: in vivo; details: N2 worms
Experimental: The lifespan of wild type C. elegans with and without peptide at a restrictive temperature was measured.
A schematic representation of the thermotolerance assay used is shown (FIG. 11A). 24 hours of 50 μg peptide treatment at 20° C. of a synchronized population of wild type C. elegans was followed by a continuous heat stress at 35° C. Worms were scored every two hours for 24 hours for survival.

[12] = system: ARPE-19 cells, hiPSC-NSC cultures, and NSC-derived neurons

With `CC[C@@H](C)[C@@H](NC(=O)[C@H](NC(=O)[C@@H](Cc1ccccc1)NC(=O)[C@@H](CC(C)C)NC)C(C)C)C(=O)N[C@H](Cc1ccccc1)C(=O)N[C@H](CC(C)C)C(=O)N[C@@H](C(=O)N[C@H](Cc1c[nH]cn1)C(=O)N[C@H](Cc1ccccc1)C(=O)N[C@H](CO)C(=O)N1CCC[C@@H]1C(=O)NCC(=O)N[C@H](CCCNC(=N)N)C(=O)N[C@H](CC(=O)O)C(=O)N[C@H](CCC(=O)O)C(=O)N[C@H](CC(=O)O)C(=O)N[C@H](CCCCN)C(=O)N[C@H](CC(=O)O)C(=O)N[C@H](CCC(=O)O)C(=O)N[C@H](CCCCN)C(N)=O)C(C)C` [CPPRAMC, CH3-lfviflvhfspgrdedkdek-NH2] (H-[dNMeL][dF][dV][dI][dF][dL][dV][dH][dF][dS][dP]G[dR][dD][dE][dD][dK][dD][dE][dK]-NH2; N-terminus and C-terminus assumed) the “resistance to proteolytic cleavage” value [1] was “resistant to proteolytic cleavage” and the “entry of peptide into cells” value [2] was “readily penetrates neural cells”.
With `CCCCCCCCCCCCCC(=O)N[C@@H](CCCCN)C(=O)N[C@@H](CC(C)C)C(=O)N[C@@H](Cc1ccccc1)C(=O)N[C@H](C(=O)N[C@H](C(=O)N[C@@H](Cc1ccccc1)C(=O)N[C@@H](CC(C)C)C(=O)N[C@H](C(=O)N[C@@H](Cc1c[nH]cn1)C(=O)N[C@@H](Cc1ccccc1)C(=O)N[C@@H](CO)C(=O)N1CCC[C@H]1C(=O)NCC(=O)N[C@@H](CCCNC(=N)N)C(=O)N[C@@H](CC(=O)O)C(=O)N[C@@H](CCC(=O)O)C(=O)N[C@@H](CC(=O)O)C(=O)N[C@@H](CCCCN)C(=O)N[C@@H](CC(=O)O)C(=O)N[C@@H](CCC(=O)O)C(=O)N[C@@H](CCCCN)C(N)=O)C(C)C)[C@@H](C)CC)C(C)C` [Myr-CPAMC] (Myristoyl-KLFVIFLVHFSPGRDEDKDEK-NH2) the “hemolysis by melittin in presence of peptide” value [3] was “protects human red blood cells (RBC) from melittin-induced hemolysis”, the “toxicity of peptide to cells” value [4] was “non-toxic to cells” and the “percentage of dead cells with sodium iodate and peptide” value [5] was “protects ARPE-19 cells from sodium iodate-induced cytotoxicity”.
For “CH3-DFVIFLDVKHFSPEDLTVK-NH2 (Me-DFVIFLDVKHFSPEDLTVK-NH2; SMILES CC[C@H](C)[C@H](NC(=O)[C@@H](NC(=O)[C@H](Cc1ccccc1)NC(=O)[C@H](CC(=O)O)NC)C(C)C)C(=O)N[C@@H](Cc1ccccc1)C(=O)N[C@@H](CC(C)C)C(=O)N[C@@H](CC(=O)O)C(=O)N[C@H](C(=O)N[C@@H](CCCCN)C(=O)N[C@@H](Cc1c[nH]cn1)C(=O)N[C@@H](Cc1ccccc1)C(=O)N[C@@H](CO)C(=O)N1CCC[C@H]1C(=O)N[C@@H](CCC(=O)O)C(=O)N[C@@H](CC(=O)O)C(=O)N[C@@H](CC(C)C)C(=O)N[C@H](C(=O)N[C@H](C(=O)N[C@@H](CCCCN)C(N)=O)C(C)C)[C@@H](C)O)C(C)C) [MC-αA, Parent peptide from αA crystallin]”, the “Median Lifespan (Days ± SE)” value [6] was 16.10 ± 0.25 days and the “Increase in median survival (%)” value [6] was 20* %.
“CH3-VPTLKdlplknvedkfhrsfvesvk-NH2 [CP-cp, reference compound]” was tested, and the “Median survival ± SE (days at 20° C.)” value [7] was 7.0 ± 0.28 days, the “% increase in survival” value ([7]; vs control) was 2.0% and the “% increase in median survival” value ([8]; 25° C., vs control) was 0%. The “Median survival Hours ± SE” value ([8]; 2 days at 15° C., then 25° C.) was 44.7 ± 0.4 h, the median survival value [9] was 5.9 h and the “Median Lifespan (Days ± SE)” value [6] was 13.23 ± 0.20 days. The “Increase in median survival (%)” value [6] was 0%, the “median survival value (50% survival)” value [10] was 5.9 h and the “% increase in survival” value ([11]; 35° C., 50 μg peptide, vs control) was 0%. For the same compound, the “Median survival ± SE (hours at 35° C.)” value ([11]; 24 hours 50 μg peptide at 20° C., then 35° C.) was 7.4 ± 0.4 h.
With “Myristoyl-{K(TMR)}LFVIFLVHFSPGRDEDKDEK-NH2 (Myristoyl-K(TMR)LFVIFLVHFSPGRDEDKDEK-NH2) [Myr-(TMR)-CPAMC]” the “toxicity of peptide to cells” value [4] was “not toxic to cells” and the “entry of peptide into cells” value [12] was “can enter into ARPE-19 cells at different concentrations”.
